# From paper PMC12705613 (Frontiers in Microbiology, 2025)
# Counter-ions that a name gives are not always drawn.
# What was measured:
# gut microbiota = assay: Fecal gut microbiota analysis after ceftriaxone treatment (16S rRNA, bacterial load); type: in vivo, rat; conditions: ceftriaxone sodium 400 mg/kg/day orally, 2 weeks; feces of WKYs and SHRs
# Description: Fecal samples were freshly collected, rapidly frozen, and weighed before storage at −80 °C until use. The absolute quantification of bacterial 16S rRNA amplicon sequencing was conducted by Majorbio Bio-Pharm Technology Co. Ltd. in Shanghai, China. Total microbial genomic DNA was extracted using the E. Z. N. A.® Soil DNA Kit, following the manufacturer’s guidelines. The quality and concentration of the extracted DNA were assessed through 1.0% agarose gel electrophoresis and with a NanoDrop 2000 spectrophotometer. RT-PCR was performed using universal 16S primers (Forward: 5′-[sequence]-3′, Reverse: 5′-[sequence]-3′) ([Nadkarni et al., 2002]). The relative bacterial load was determined by normalizing the DNA content against the weight of feces from the untreated group.
# Fecal DNA was extracted utilizing the E. Z. N. A.® Soil DNA Kit. The extracted DNA was analyzed using a 1% agarose gel, and its concentration and purity were assessed with NanoDrop2000 spectrophotometer. […] The resulting PCR products were purified, quantified, and homogenized to create a sequencing library, which was commissioned to Majorbio Bio Pharm Technology Co. Ltd. The sequencing data were processed using the DADA2 algorithm in Qiime 2 to obtain amplicon sequence variants (ASVs), followed by the removal of chloroplast and mitochondrial sequences. […]
# [1] = Body weight and blood pressure during ceftriaxone treatment; conditions: ceftriaxone sodium 400 mg/kg/day orally, 2 weeks; WKYs and SHRs
# in vivo = conditions: for MRT last: MRT0-t; for MRT inf: MRT 0-∞; for half-life: t1/2z
# Description: The pharmacokinetic study was described as follows.
# The UHPLC-TQ-MS analysis was conducted on an LC-30 AD ultra high-performance liquid chromatograph (Shimadzu, Japan) connected to an AB 4500 (AB Sciex, United States) Triple Quadrupole Mass Spectrometer with an ESI source. Chromatographic separation was achieved on an Acquity UHPLC HSS T3 column (100 × 2.1 mm, 1.8 μm) at 40 °C, and the eluent was aqueous formic acid (100:0.1, v/v) (A) and acetonitrile with formic acid (100:0.1, v/v) (B) at a flow rate of 0.3 mL min^−1. Gradient elution differs in the calculation of residual content and pharmacokinetic experiments. MRM mode was employed. Data processing was performed using Analyst Software (AB Sciex). The UHPLC-TQ-MS method validation was conducted in terms of selectivity, linearity, carryover, accuracy and precision, matrix effect, extraction recovery, dilution integrity, and stability under various conditions, which was performed in line with the FDA guidelines for bioanalytical assays. More details were described in the Supplementary material method.
# The comparisons of the relative abundance of the genera between different groups were performed using the Wilcoxon rank-sum test. Comparisons between WKY and SHRs before and after CRO treatment were conducted using either a t-test or one-way ANOVA, with p values < 0.05 considered statistically significant. […] Graphs were created using GraphPad Prism 8.0 software.
# For the determination of drug remaining contents in the supernatant, the gradient elution was as follows: 0.1–0.5 min at 45% B; 0.5–1.0 min at 45–65% B; 1.5–4.0 min at 65–85% B; 4.0–4.5 min at 85% B; 4.5–4.6 min at 85%–45% B; 4.6–5.0 min at 45% B. For pharmacokinetics, the gradient elution was performed as follows: 0–0.5 min at 30% B; 0.5–1.5 min at 30–45% B; 1.5–5.0 min at 45–60% B; 5.0–7.0 min at 60–80% B; 7.0–8.0 min at 80% B; 8.1–10.0 min at 30% B. The injection volume was 5 μ L. The multiple reaction monitoring (MRM) mode was used to detect analytes and IS in the positive ion mode. The mass spectrometry parameters were set as follows: ion spray voltage was 5500 V, turbo spray temperature (TEM) of 550℃; nebulizer gas (gas 1) of 50 psi; heater gas (gas 2) of 50 psi and curtain gas of 40 psi. Nitrogen was kept as the nebulizer and auxiliary gas.
# [2] = Metabolites detection in vivo in plasma, feces and urine (UHPLC-Q-TOF-MS); design: species or system rat; conditions: single oral losartan potassium 20 mg/kg
# Description: For urine and feces, cumulative samples were collected over the following time intervals: 0–4, 4–8, 8–12, and 12–24 h after administration. The processing of the biological samples can be found in the Supplementary material.
# The biological samples were processed as follows: For plasma, a total of 400 μL of pooled plasma was mixed by combining 50 μL aliquots from each time point. A 100 μL aliquot was mixed with 300 μL of methanol, vortexed for one minute, and centrifuged at 5,000 rpm for 10 minutes at 4°C [1]. In the case of urine, 1 mL was centrifuged at 4,000 rpm for 20 minutes at 4°C, and the supernatant was mixed with 2 mL of methanol, vortexed for one minute, and centrifuged at 12,000 rpm for 10 minutes at 4°C [2]. For fecal samples, 1.0 g of homogenized feces was extracted with 4 mL of methanol, sonicated in an ice-water bath for 20 minutes, and then centrifuged at 12,000 rpm for 10 minutes at 4°C [3]. Supernatants from the plasma, urine, and fecal extracts were evaporated under nitrogen gas, redissolved in methanol, and transferred to liquid chromatography vials. Samples were analyzed using UHPLC-Q-TOF-MS/MS for metabolite profiling.
# [3] = Stability of the analytes in rat plasma at different storage conditions; type: in vitro ADME
# Description: Analysis of QC samples was performed according to a standard curve, which was obtained from freshly prepared calibration standard samples. The autosampler stability was determined by placing samples in the autosampler rack at 8 ℃ for 24 h. The freeze-thaw stability was evaluated after three complete freeze-thaw cycles (-80 ℃ to 25 ℃) on consecutive days. The short-term stability was determined after samples were exposed to room temperature for 6 h. The long-term stability was assessed after storing the samples at -80 ℃ for 30 days. The analytes were considered stable if the deviation between the mean measured concentration and the nominal concentration was within ± 15.0%.
# [4] = design: method as in Yoo et al., 2016; conditions: ref Yoo et al., 2016; cited from earlier work
# [5] = SHR, rat, in vivo, po, 20 mg/kg
# [6] = WKY, rat, in vivo, po, 20 mg/kg
smiles,measurement,setting,value
"CO/N=C(\C(=O)N[C@@H]1C(=O)N2C(C(=O)O)=C(CSc3nc(=O)c(=O)[nH]n3C)CS[C@H]12)c1csc(N)n1 [CRO, ceftriaxone disodium salt hemiheptahydrate]","α-diversity (Chao1, Shannon index) and bacterial abundance",gut microbiota,significant reduction
same,"Body weight, CRO-treated vs untreated",[1],no differences in body weight
CCCCc1nc(Cl)c(C=O)n1Cc1ccc(-c2ccccc2-c2nn[nH]n2)cc1 [E-3179],AUC0-∞,in vivo; [5],900.54 ± 226.29 ng·h/mL
same,AUC(0-t),in vivo; [5],850.57 ± 189.22 ng·h/mL
same,Cmax,in vivo; [5],143.43 ± 108.27 ng/mL
same,MRT0-t,in vivo; [5],7.68 ± 1.38 h
same,MRT 0-∞,in vivo; [5],11.33 ± 2.86 h
same,Tmax,in vivo; [5],1.96 ± 1.15 h
same,t1/2z,in vivo; [5],5.61 ± 3.15 h
same,MRT last,in vivo; [5],6.99 ± 1.41 h
same,MRT inf,in vivo; [5],9.57 ± 2.83 h
same,Tmax,"in vivo; SHR, rat, in vivo, po, 20 mg/kg, Tmax",1.83 ± 1.69 h
same,half-life,in vivo; [5],5.51 ± 2.46 h
same,Decrease of AUC0-∞,"in vivo; SHRs compared to WKYs, losartan potassium 20 mg/kg intragastric",36.13%
same,Cmax,in vivo; [6],310.47 ± 243.53 ng/mL
same,MRT0-t,in vivo; [6],10.46 ± 1.03 h
same,MRT 0-∞,in vivo; [6],15.25 ± 4.02 h
same,t1/2z,in vivo; [6],5.29 ± 1.44 h
same,AUC(0-t),"in vivo; WKY, rat, in vivo, po, 20 mg/kg, AUC0-t",1340 ± 741 ng·h/mL
same,AUC(0-inf),"in vivo; WKY, rat, in vivo, po, 20 mg/kg, AUC0-∞",1410 ± 741 ng·h/mL
same,MRT last,in vivo; [6],6.18 ± 1.58 h
same,MRT inf,in vivo; [6],8.79 ± 4.19 h
same,half-life,in vivo; [6],5.75 ± 2.71 h
same,"Abundance in feces and plasma, SHRs vs WKYs",[2],lower in SHRs than in WKYs
same,"Abundance in urine, SHRs vs WKYs",[2],more abundant in urine
same,Stability RE,"[3]; autosampler for 24 h (8 ℃), high nominal conc. (losartan 8000, E-3174 4000, E-3179 1600 ng/mL)",2.34%
same,Stability RE,"[3]; autosampler for 24 h (8 ℃), low nominal conc. (losartan 0.2, E-3174 10, E-3179 0.4 ng/mL)",2.96%
same,Stability RE,"[3]; autosampler for 24 h (8 ℃), middle nominal conc. (losartan 2000, E-3174 1000, E-3179 400 ng/mL)",12.05%
same,Stability RE,"[3]; room temperature for 6 h, high nominal conc. (losartan 8000, E-3174 4000, E-3179 1600 ng/mL)",-10.69%
same,Stability RE,"[3]; room temperature for 6 h, low nominal conc. (losartan 0.2, E-3174 10, E-3179 0.4 ng/mL)",-2.22%
same,Stability RE,"[3]; room temperature for 6 h, middle nominal conc. (losartan 2000, E-3174 1000, E-3179 400 ng/mL)",4.87%
same,Stability RE,"[3]; three freeze-thaw cycles, high nominal conc. (losartan 8000, E-3174 4000, E-3179 1600 ng/mL)",6.66%
same,Stability RE,"[3]; three freeze-thaw cycles, low nominal conc. (losartan 0.2, E-3174 10, E-3179 0.4 ng/mL)",2.96%
same,Stability RE,"[3]; three freeze-thaw cycles, middle nominal conc. (losartan 2000, E-3174 1000, E-3179 400 ng/mL)",2.84%
same,Stability RE,"[3]; −80°C for 30 days, high nominal conc. (losartan 8000, E-3174 4000, E-3179 1600 ng/mL)",7.58%
same,Stability RE,"[3]; −80°C for 30 days, low nominal conc. (losartan 0.2, E-3174 10, E-3179 0.4 ng/mL)",3.27%
same,Stability RE,"[3]; −80°C for 30 days, middle nominal conc. (losartan 2000, E-3174 1000, E-3179 400 ng/mL)",9.16%
CCOC(=O)C1=C(COCCN)NC(C)=C(C(=O)OC)C1c1ccccc1Cl (centres unmarked) [amlodipine],Systemic exposure in antibiotic-treated rats vs controls,[4],significantly elevated
